Here are results for 3 molecules from EP1148124A1 (priority 1999, dated 2000).

Like-named read-outs stand apart in the source and are kept apart here.

Data set [1] is described as follows: Reporter assay (No. 2), cell number reporter gene (sea pansy luciferase, pRL-TK), clone of Example 3. Format: cell-based. As to conditions: mouse, hepa1c1c7 cells. Here is the method:
For the measured values of the amount of expression of the cell number reporter gene, a ratio is determined of the measured value in the test substance added group to the measured value in the only solvent added group (control group). When the ratio is, for example, in the range of 0.8 to 1.2, the measured value of the amount of expression of the ligand responsive reporter gene in the test substance added group is selected for evaluating the agonist or antagonist activity of the test substance against the ability of a ligand responsive transcriptional regulatory factor to promote transcription. When the ratio takes a small value such as smaller than 0.8, for example, it is possible that the test substance has cytotoxicity. In contrast, when the ratio takes a large value such as greater than 1.2, for example, it is possible that the test substance has activity against the transcriptional regulatory system of a gene without mediation of a ligand responsive transcriptional regulatory factor. However, the range of this ratio suitable for selecting the measured value of the amount of expression of the […] reporter gene may vary depending on certain properties of the present cells used and the conditions of measurement, and it is not limited to the above examples of numerical values.
Separately, the ligand responsive reporter gene containing plasmid pGV-Ya-XREx5 constructed in Example 1 was digested with Bam HI. Further, the cell number reporter gene containing plasmid pRL-TK (marketed by Toyo Ink) was digested with Bam HI, and the neomycin resistance (aminoglycoside phosphotransferase) gene containing plasmid pRc/RSV (available from INVITROGEN) was digested with Hind III. These three digested plasmids, i.e., Bam HI digested pGV-Ya-XREx5 (5.6 µg), Bam HI digested pRL-TK (5.6 µg), and Hind III digested pRc/RSV (1 µg), were mixed with 600 µl of αMEM medium (mixture C), while 72 µl of lipofectin (available from GIBCO-BRL) was mixed with 600 µl of αMEM medium (mixture D). After being left at room temperature for 30 minutes, mixtures C and D were combined together and left at room temperature for 10 minutes. After the Hepalclc7 cells cultured overnight as described above were then washed once with αMEM medium, there was added a half volume of a solution prepared by adding and mixing additional 10.8 ml of αMEM medium into the above mixture (C + D). Culturing of the resulting mixture was carried out for 5 hours. The medium was then replaced with 10% serum containing αMEM medium, followed by further culturing for 2 days. Subsequently, the cells were scratched from the petri dishes and collected, and the collected cells were suspended in 10% serum containing αMEM medium to have the total volume of 100 ml. The resulting cell suspension was plated on 96-well plates at a ratio of 100 µl/well. After these plates were cultured overnight, a medium prepared by dissolving G418 in 10% serum containing αMEM medium to have a concentration of 3.2 mg/ml was added at a ratio of 100 µl/well (G418 final concentration 1.6 mg/ml). Culturing was further continued, during which the medium was replaced with 10% serum containing αMEM medium containing 800 µg/ml G418 at a rate of once per 4 to 5 days. The volume of the medium was set at 200 µl/well. […] To the first plate, only DMSO was added (solvent control), and to the second plate, 3-MC dissolved in DMSO was added so that the final concentration of 3-MC in the second plate came to 2 µm per well. The first and second plates were then cultured overnight. In this case, the DMSO or the solution of 3-MC in DMSO was added so that the final concentration of DMSO in each well came to 0.04%. The third plate was further cultured as the master plate. From each well of each plate, to which DMSO or 3-MC had been added, the medium was removed, and the wells were washed twice with PBS(-). […]
In general terms: A reporter such as luciferase makes a cellular process visible.

A further data set concerns Ah receptor. Put plainly: Reporter assay (No. 2), ligand responsive reporter gene (firefly luciferase, pGV-Ya-XREx5), clone of Example 3. In kind it is cell-based, mouse.
Data set [2] concerns aryl hydrocarbon receptor. Briefly: Luciferase assay for clone selection (Example 2), firefly luciferase ligand responsive reporter gene.
Setting [3] is: final conc. 1 nM, about 6 hours.
[4] abbreviates: final conc. 10 nM, about 6 hours.
[5] abbreviates: final conc. 100 nM, about 6 hours.
The mark [6] stands for this setting: final conc. 1000 nM, about 6 hours.
Where [7] appears, read: final conc. 10000 nM, about 6 hours.
The mark [8] stands for this setting: final conc. 50000 nM, about 6 hours.

Take `c1ccc2c(c1)cc1ccc3cccc4ccc2c1c34` [Benzo[a]pyrene, benzo[a]pyrene]: the viability at 6 h, 0.001 µM in data set [1] (final conc. 1 nM, about 6 hours, ratio to 0 nM, read-out: Amount of luminescence by sea pansy luciferase (from pRL-TK) Ratio) worked out at 90%. The viability at 6 h, 0.01 µM in data set [1] (final conc. 10 nM, about 6 hours, ratio to 0 nM, read-out: Amount of luminescence by sea pansy luciferase (from pRL-TK) Ratio) turned out to be 90%. Also, the viability at 6 h, 0.1 µM in data set [1] (final conc. 100 nM, about 6 hours, ratio to 0 nM, read-out: Amount of luminescence by sea pansy luciferase (from pRL-TK) Ratio) is 80%. Also, the viability at 6 h, 1 µM in data set [1] (final conc. 1000 nM, about 6 hours, ratio to 0 nM, read-out: Amount of luminescence by sea pansy luciferase (from pRL-TK) Ratio) was 90%. For the same molecule, the viability at 6 h, 10 µM in data set [1] (final conc. 10000 nM, about 6 hours, ratio to 0 nM, read-out: Amount of luminescence by sea pansy luciferase (from pRL-TK) Ratio) turned out to be 80%. In addition, the viability at 6 h, 50 µM in data set [1] (final conc. 50000 nM, about 6 hours, ratio to 0 nM, read-out: Amount of luminescence by sea pansy luciferase (from pRL-TK) Ratio) turned out to be 80%. For the same molecule, the “Amount of luminescence by firefly luciferase (from pGV-Ya-XREx5) Measured value” is on record as 0.414 x 10^2 in the data set on Ah receptor (setting [3]); 0.928 x 10^2 in the data set with Ah receptor (setting [4]); 1.72 x 10^2 with Ah receptor (setting [5]); 3.12 x 10^2 in the data set with Ah receptor (setting [6]); 4.54 x 10^2 in the data set on Ah receptor (setting [7]); 5.76 x 10^2 in the data set on Ah receptor (setting [8]). Further, the “Amount of luminescence by firefly luciferase (from pGV-Ya-XREx5) Ratio” value with Ah receptor (final conc. 1 nM, about 6 hours, ratio to 0 nM) is recorded as 1.7; with Ah receptor (final conc. 10 nM, about 6 hours, ratio to 0 nM) it was 3.7; with Ah receptor (final conc. 100 nM, about 6 hours, ratio to 0 nM), 6.9; with Ah receptor (final conc. 1000 nM, about 6 hours, ratio to 0 nM), 12; in the data set with Ah receptor (final conc. 10000 nM, about 6 hours, ratio to 0 nM), 18; in the data set with Ah receptor (final conc. 50000 nM, about 6 hours, ratio to 0 nM) it was 23.
Take `Cc1ccc2cc3c(ccc4ccccc43)c3c2c1CC3` [3-MC, 3-methylcholanthrene]: in data set [2], the “increase in the expression of the firefly luciferase gene by the addition of 3-MC” value is “about 10 times”.
In the case of `C[C@@H]1C[C@H]2[C@@H]3CCC4=CC(=O)C=C[C@]4(C)[C@@]3(F)[C@@H](O)C[C@]2(C)[C@@]1(O)C(=O)CO` [Dexamethasone, dexamethasone], the viability at 6 h, 0.001 µM in data set [1] was 100%. For the same molecule, in data set [1], the viability at 6 h, 0.01 µM amounted to 100%. The viability at 6 h, 0.1 µM in data set [1] turned out to be 90%. For the same molecule, the viability at 6 h, 1 µM in data set [1] was found to be 80%. Moreover, the viability at 6 h, 10 µM in data set [1] stood at 100%. In addition, the viability at 6 h, 50 µM in data set [1] came to 110%. Besides, the “Amount of luminescence by firefly luciferase (from pGV-Ya-XREx5) Measured value” is 3.71 x 10^2 in the data set with Ah receptor (setting [3]); 3.54 x 10^2 in the data set with Ah receptor (setting [4]); 3.39 x 10^2 with Ah receptor (setting [5]); 3.22 x 10^2 with Ah receptor (setting [6]); 3.53 x 10^2 in the data set on Ah receptor (setting [7]); 3.73 x 10^2 in the data set on Ah receptor (setting [8]). In addition, the “Amount of luminescence by firefly luciferase (from pGV-Ya-XREx5) Ratio” value with Ah receptor (hepa1c1c7 cells, 6 h, 0.001 µM) was 1.3; with Ah receptor (hepa1c1c7 cells, 6 h, 0.01 µM), 1.2; in the data set on Ah receptor (hepa1c1c7 cells, 6 h, 0.1 µM), 1.2; with Ah receptor (hepa1c1c7 cells, 6 h, 1 µM) it was 1.1; in the data set with Ah receptor (hepa1c1c7 cells, 6 h, 10 µM) it was 1.2; in the data set with Ah receptor (hepa1c1c7 cells, 6 h, 50 µM), 1.3.
